Assay results reported in US7091311B2, “Peptides and compounds that bind to a receptor” (SmithKline Beecham Corporation, priority 1996, dated 2006).
Like-named read-outs stand apart in the source and are kept apart here.

What was measured:
[1] = target: T1, human TPO-R (Homo sapiens, UniProt P40238); assay: thrombopoietin dependent cell proliferation assay, TPO-R transfected Ba/F3 cells (MTT); format: cell-based
T1 construct: transfected with full length human TPO-R; expressed in transfected cells; host or cells: murine Ba/F3 cells
T1 sequence (P40238 26-635): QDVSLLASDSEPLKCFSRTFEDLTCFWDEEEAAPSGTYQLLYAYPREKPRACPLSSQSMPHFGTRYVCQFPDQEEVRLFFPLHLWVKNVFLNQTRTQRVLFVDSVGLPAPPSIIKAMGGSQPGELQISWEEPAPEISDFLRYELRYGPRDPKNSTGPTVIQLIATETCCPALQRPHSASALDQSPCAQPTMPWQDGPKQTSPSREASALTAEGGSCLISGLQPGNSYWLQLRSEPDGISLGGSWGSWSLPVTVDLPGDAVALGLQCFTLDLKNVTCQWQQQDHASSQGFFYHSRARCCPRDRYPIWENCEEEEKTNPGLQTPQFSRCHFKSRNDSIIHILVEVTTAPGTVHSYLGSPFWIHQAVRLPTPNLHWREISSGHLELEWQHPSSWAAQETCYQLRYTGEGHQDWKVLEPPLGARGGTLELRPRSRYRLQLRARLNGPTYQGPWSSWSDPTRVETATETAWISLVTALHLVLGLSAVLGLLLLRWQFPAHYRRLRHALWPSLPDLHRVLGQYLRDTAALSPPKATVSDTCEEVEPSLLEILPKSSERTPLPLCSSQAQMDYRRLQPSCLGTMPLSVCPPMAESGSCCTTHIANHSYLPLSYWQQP
Description: Bioactivity of the peptides can be measured using a thrombopoietin dependent cell proliferation assay. Murine IL-3 dependent Ba/F3 cells were transfected with full length human TPO-R. In the absence of IL-3 (WEHI-3 conditioned media), these cells are dependent on TPO for proliferation.
The cells were grown in complete RPMI-10 media, containing 10% WEHI-3 conditioned media, then washed twice in PBS, resuspended in media which lacked WEHI-3 conditioned media, and added to wells containing dilutions of peptide or TPO at 2×10^4 cells/well. The cells were incubated for 48 hours at 37° C. in a humidified 5% Co2 atmosphere and metabolic activity was assayed by the reduction of MTT to formazan, with absorbance at 570 nm measured on an ELISA plate reader.

[2] = target: T2, TPO receptor (Homo sapiens, UniProt P40238); assay: microphysiometer assay: rate of acidification of the extracellular medium in response to TPO receptor stimulation; format: cell-based; details: Table 9; read-out: EC50 (nM) Microphys.
T2 sequence (P40238 26-635): T1 sequence (P40238 26-635)
Description: In this example cyclized compounds were subjected to three assays. […] Finally, a microphysiometer (Molecular Devices Corp.) assay was performed. […] The ranges for EC50 are symbolically indicated as for IC50 described above.

[3] = target: T3, TPO-R (Homo sapiens, UniProt P40238); assay: competition binding assay: MBP-TPO156 binding to immobilized TPO-R (ELISA); details: read-out: IC50
T3 construct: made in house
T3 sequence (P40238 26-491 limits assumed): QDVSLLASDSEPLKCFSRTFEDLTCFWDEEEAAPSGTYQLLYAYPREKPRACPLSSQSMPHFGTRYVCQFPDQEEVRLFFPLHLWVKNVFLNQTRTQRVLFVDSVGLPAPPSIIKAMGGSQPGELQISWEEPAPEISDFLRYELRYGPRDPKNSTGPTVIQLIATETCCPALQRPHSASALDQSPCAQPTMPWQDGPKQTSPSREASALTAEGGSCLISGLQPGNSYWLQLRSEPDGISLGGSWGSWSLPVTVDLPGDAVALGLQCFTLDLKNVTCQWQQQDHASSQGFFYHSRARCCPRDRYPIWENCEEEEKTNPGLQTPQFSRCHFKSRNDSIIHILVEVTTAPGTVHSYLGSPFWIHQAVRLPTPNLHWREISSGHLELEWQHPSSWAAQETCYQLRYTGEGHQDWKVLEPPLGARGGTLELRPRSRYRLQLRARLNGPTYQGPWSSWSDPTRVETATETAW
Description: A variety of methods can be used to evaluate IC50 values. For example, an equilibrium binding ELISA assay, using either MBP-TPO or lacI-peptide tracer, was used to determine whether the peptides inhibit the binding of TPO to the extracellular domain of the TPO receptor. Typically, the IC50 value were determined using the free peptide. The IC50value can be determined using the free peptide, which optionally can be C-terminally amidated, or can be prepared as an ester or other carboxy amide.
Binding affinities of chemically synthesized peptides for TPO-R were measured in a competition binding assay. The wells of a microtiter plate were coated with 1 mg streptavidin, blocked with PBS/1% BSA, followed by 50 ng of biotinylated anti-receptor immobilizing antibody (Ab179). The wells were then treated with a 1:10 dilution of soluble TPO-R harvest. Various concentrations of peptide or peptide mimetic were mixed with a constant amount of a truncated form of TPO consisting of residues 1–156 fused to the C-terminus of maltose binding protein (MBP-TPO156). The peptide MBP-TPO156 mixtures were added to the TPO-R coated wells, incubated for 2 hours at 4° C. and then washed with PBS. The amount of MBP-TPO156 that was bound at equilibrium was measured by adding a rabbit anti-sera directed against MBP, followed by alkaline phosphatase conjugated goat anti-rabbit IgG. The amount of alkaline phosphatase in each well was then determined using standard methods.
The assay is conducted over a range of peptide concentrations and the results are graphed such that the y axis represents the amount of bound MBP-TPO156 and the x axis represents the concentration of peptide or peptide mimetic.

EC50 ([1]; Table 9, read-out: EC50 (nM) Prolif.): ≤ 500 nM
EC50 ([1]; Table 10, value outside parentheses, read-out: EC50 (nM) Cell Prolif.): ≤ 500 nM
EC50 [2]: ≤ 500 nM
IC50 ([3]; Table 7, dimer compounds): ≤ 0.5 µM
IC50 ([3]; Table 9): ≤ 0.5 µM
Compound: CC[C@H](C)[C@H](N)C(=O)N[C@@H](CCC(=O)O)C(=O)NCC(=O)N1CCC[C@H]1C(=O)N[C@H](C(=O)N[C@@H](CC(C)C)C(=O)N[C@@H](CCCNC(=N)N)C(=O)N[C@@H](CCC(N)=O)C(=O)N[C@@H](Cc1c[nH]c2ccccc12)C(=O)N[C@@H](CC(C)C)C(=O)N[C@@H](C)C(=O)N[C@@H](C)C(=O)N[C@@H](CCCNC(=N)N)C(=O)N[C@@H](C)C(=O)NCCCC[C@H](NC(=O)CCNC(=O)[C@H](C)NC(=O)[C@H](CCCNC(=N)N)NC(=O)[C@H](C)NC(=O)[C@H](C)NC(=O)[C@H](CC(C)C)NC(=O)[C@H](Cc1c[nH]c2ccccc12)NC(=O)[C@H](CCC(N)=O)NC(=O)[C@H](CCCNC(=N)N)NC(=O)[C@H](CC(C)C)NC(=O)[C@@H](NC(=O)[C@@H]1CCCN1C(=O)CNC(=O)[C@H](CCC(=O)O)NC(=O)[C@@H](N)[C@@H](C)CC)[C@@H](C)O)C(N)=O)[C@@H](C)O
